Two compounds from EPA's ToxValDB 9.5 (doi:10.2903/j.efsa.2006.72r) can be followed below.

Converted amounts (≈) assume the structure as drawn. A value given as a limit tells only on which side of the number the result lay.

The subject of one series is Rattus norvegicus. Conditions: for LD50: acute, mortality; for NOAEL: histopathology: neoplastic.
The subject of a further series is Folsomia candida. To be noted: not reported; mortality.
The next series deals with Mus musculus. Conditions: chronic, duration: 2 years.
Another series relates to Anas platyrhynchos. Conditions: short-term; oral; feed; mortality.
Another series relates to Cyprinodon variegatus. Conditions: acute; duration: 96 hours; mortality.
In another series the test system is Canidae. Conditions: short-term; duration: 2 weeks; Dog Other.
A further series relates to Oryctolagus sp. To be noted: reproduction developmental; inhalation.
The next series concerns Colinus virginianus. Conditions: acute; oral; diet; mortality.
The next series has as its system Daphnia magna. To be noted: chronic/long-term; duration: 21 days; mortality.
Another series has as its system Pimephales promelas. Conditions: chronic/long-term; duration: 33 days; growth.
The subject of another series is Landoltia sp. Conditions: acute; duration: 14 days; mortality.
In the next series the test system is Oncorhynchus mykiss. Conditions: acute; duration: 96 hours; mortality.

In the case of `ClC=CCCl` [1,3-Dichloropropene], the LD50 was 2.7 mg/L in the series on Rattus norvegicus (inhalation), 130 mg/kg with Rattus norvegicus (oral) and 140 mg/kg in the series on Colinus virginianus. In addition, the no-observed-adverse-effect level (NOAEL) turned out to be 2.5 mg/kg-day in the series with Rattus norvegicus (chronic, duration: 2 years, oral, diet); 9.72 mg/kg-day in the series on Rattus norvegicus (subchronic, duration: 90 days, inhalation); 4.43 mg/kg-day in the series on Mus musculus (inhalation, histopathology: neoplastic); 2.5 mg/kg-day in the series with Mus musculus (oral, M/F); 20 mg/kg-day with Canidae; 0.0908 mg/L with Oryctolagus sp.. This compound also displayed an LEL with Folsomia candida of 329000 g/ha. Moreover, the LC50 in the series on Anas platyrhynchos was greater than 1260 mg/kg-day; in the series with Cyprinodon variegatus it was 0.87 µg/mL (≈ 7.84 µM); in the series on Tagia sp. (acute, duration: 14 days, mortality) it was 55.6 mg/kg. Besides, the NOEC was 770 mg/kg in the series with Tagia sp. (chronic/long-term, duration: 56 days, reproduction); 0.0701 mg/L in the series with Daphnia magna; 0.032 mg/L with Pimephales promelas.

Take `O=C(O)C=CCl` [3-Chloroacrylic acid]: the figures for the LC50 with Landoltia sp. and with Oncorhynchus mykiss were 0.26 µg/mL (≈ 2.44 µM) and 69.5 µg/mL (≈ 653 µM), respectively. Besides, in the series with Rattus norvegicus (oral), the LD50 was 91 mg/kg.

For orientation: NOAEL means the highest dose or exposure tested at which no adverse effect was seen.
